# Laboratory results published in US11691962B2 (eXIthera Pharmaceuticals, Inc., priority 2018, dated 2023).
# Experiments:
# Assay type in all cases: biochemical
# Trypsin = assay: Dose response assay for protease inhibitors: trypsin; conditions: selectivity, trypsin over Factor XIa
# Experimental: (§1) • Assay buffer: 20 mM Hepes, pH 7.4; 150 mM NaCl; 0.02% Tween 20 • Compounds: 10 mM stocks in DMSO • Substrate: 20 mM Glp-Pro-Arg-AMC, 25 mg/2.3 mL H2O (store at +4° C.) [Factor XIa, thrombin, and trypsin] • 20 mM Pro-Phe-Arg-AMC (Bachem I-1295), 25 mg/2.2 mL H2O • or Boc-Leu-Gly-Arg-AMC (Bachem I-1105), 25 mg/2.07 mL H2O • (store at +4° C.) [Factor Xa] • Enzyme: Factor XIa; 0.25 μM in 50% glycerol (20 μg/mL) • Trypsin; 0.2 μM in 50% glycerol (4.8 μg/mL) • Thrombin; 0.2 μM in 50% glycerol (7.34 μg/mL) • Factor Xa; 0.2 μM in 50% glycerol (9.2 μg/mL) • These stocks are aliquoted (˜100 μL/aliquot) and stored at −20° C. Methods: • 1. Dilute the substrate to 100 μM in assay buffer (30 μL/6 mL). The enzyme is diluted to 0.5 nM just prior to use (12 μL/6 mL for Factor XIa; 15 μL/6 mL for all of the rest.) • 2. Pipette 50 μL of substrate into each well of the 96 well (12×8) microtiter plate. (Column 1 is used as the 100% activity control and receives no compound, and Column 12 is the blank and receives no enzyme.) Add an additional 46 μL to column 2. • 3. Pipette 4 μL of each compound into the appropriate well in column 2 of the plate (unknowns assayed in triplicate, standard assayed in duplicate). The final compound concentration will be […] of the stock. • 4. Serially two-fold dilute the compound by mixing the sample in column 2, removing 50 μL to the next well (column 3), mix and remove to column 4, etc. until column 11. After mixing column 11, remove 50 μL and discard. • 5. Pipette 50 μL of buffer into column 12. Initiate the reaction by adding 50 μL of enzyme solution to each well of columns 1-11 as rapidly as possible. • 6. Read the plate in a spectrophotometer (SpectraMax) at 30° C., wherein each well is measured every 60 s for 30 min. For Factor Xa assays, each well is measured every 1 min for a total of 60 min. • 7. For Factor XIa assays, the compounds are assayed, in duplicate, at 3 different starting concentrations, 20, 2, and 0.2 μM; 1:10, 1:100, and 1:1000 dilution of 10 mM stock or at 2, 0.2, and 0.02 μM; 1:100, 1:1000, and 1:10,000 dilution of 10 mM stock. Data for each concentration are combined for graphing and data fitting. • 8. Data can be used both for estimation of IC50 and for estimation of Kon.
# Thrombin = Thrombin (Homo sapiens (Human), UniProt P00734); assay: Dose response assay for protease inhibitors: thrombin; conditions: selectivity, thrombin over Factor XIa
# Experimental: as §1
# Factor XIa = Factor XIa (Homo sapiens (Human), UniProt P03951); assay: Factor XIa enzyme inhibition assay (dose response, fluorogenic AMC substrate); conditions: read-out: hFXIa IC50
# Factor XIa, sequence (P03951 388-625): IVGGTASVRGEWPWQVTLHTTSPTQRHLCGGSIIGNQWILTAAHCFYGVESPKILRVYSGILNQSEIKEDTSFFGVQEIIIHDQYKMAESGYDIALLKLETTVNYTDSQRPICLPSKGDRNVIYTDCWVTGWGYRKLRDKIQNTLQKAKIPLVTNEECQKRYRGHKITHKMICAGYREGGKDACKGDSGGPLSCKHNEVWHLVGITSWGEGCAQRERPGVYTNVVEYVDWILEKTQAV
# Factor XIa, sequence (P03951 19-387 partner): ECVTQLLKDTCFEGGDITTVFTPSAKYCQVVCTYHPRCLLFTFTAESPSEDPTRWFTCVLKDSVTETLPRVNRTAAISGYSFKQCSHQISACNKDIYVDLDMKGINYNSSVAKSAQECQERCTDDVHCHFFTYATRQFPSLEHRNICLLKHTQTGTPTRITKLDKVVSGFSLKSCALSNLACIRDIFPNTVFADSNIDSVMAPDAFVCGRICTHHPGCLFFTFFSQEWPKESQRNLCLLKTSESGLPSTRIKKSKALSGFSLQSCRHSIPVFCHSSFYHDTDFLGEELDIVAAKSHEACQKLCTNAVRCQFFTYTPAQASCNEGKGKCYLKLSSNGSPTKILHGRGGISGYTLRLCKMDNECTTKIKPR
# Outline: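 Fluorogenic progress curves (30 min, 1-min reads, 30° C) were recorded for 0.25 nM FXIa cleaving 50 μM Glp-Pro-Arg-AMC in Hepes pH 7.4 buffer with NaCl and Tween 20. Compounds were serially two-fold diluted, and IC50 was fitted with a Hill equation.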
# Factor Xa = Factor Xa (Homo sapiens (Human), UniProt P00742); assay: Dose response assay for protease inhibitors: Factor Xa; conditions: selectivity, Factor Xa over Factor XIa
# Factor Xa, sequence (P00742 235-488): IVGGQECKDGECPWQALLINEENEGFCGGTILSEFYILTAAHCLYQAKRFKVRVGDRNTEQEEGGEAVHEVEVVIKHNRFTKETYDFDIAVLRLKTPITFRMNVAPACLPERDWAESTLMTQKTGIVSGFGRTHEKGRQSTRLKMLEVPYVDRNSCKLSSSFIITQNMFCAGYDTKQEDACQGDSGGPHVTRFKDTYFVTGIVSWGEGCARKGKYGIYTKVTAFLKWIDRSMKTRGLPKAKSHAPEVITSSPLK
# Factor Xa, sequence (P00742 41-179 partner): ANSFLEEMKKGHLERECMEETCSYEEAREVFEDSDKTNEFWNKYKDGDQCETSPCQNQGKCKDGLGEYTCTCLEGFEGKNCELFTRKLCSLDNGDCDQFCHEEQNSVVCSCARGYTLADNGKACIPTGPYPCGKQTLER
# Experimental: as §1
smiles,measurement,setting,value
"CC[C@@H](NC(=O)N1C(=O)[C@H](Cc2cc(C)nc(N)c2)[C@H]1C(=O)N(C)c1ccnn1C)c1cccc(F)c1F [Compound 1-151, (2S,3R)-3-((2-amino-6-methylpyridin-4-yl)methyl)-N2-(1-methyl-1H-pyrazol-5-yl)-N1-((R)-1-(2,3-difluorophenyl)propyl)-N2-methyl-4-oxoazetidine-1,2-dicarboxamide]",Ratio: Trypsin/FXIa,Trypsin,G (“G” indicates 1-100)
same,Ratio: Thrombin/FXIa,Thrombin,I (“I” indicates > 500)
same,IC50,Factor XIa,< 10 nM
same,Ratio: FXa/FXIa,Factor Xa,I (“I” indicates > 500)
"CC[C@@H](NC(=O)N1C(=O)[C@H](Cc2ccnc(N)c2)[C@H]1C(=O)N(C)c1nccn1C)c1ccc(C)cc1C [Compound 1-114, (2S,3R)-3-((2-aminopyridin-4-yl)methyl)-N2-(1-methyl-1H-imidazol-2-yl)-N1-((R)-1-(2,4-dimethylphenyl)propyl)-N2-methyl-4-oxoazetidine-1,2-dicarboxamide]",Ratio: Trypsin/FXIa,Trypsin,G (“G” indicates 1-100)
same,Ratio: Thrombin/FXIa,Thrombin,H (“H” indicates 101-1000)
same,IC50,Factor XIa,< 10 nM
same,Ratio: FXa/FXIa,Factor Xa,H (“H” indicates 101-1000)
"CC[C@@H](NC(=O)N1C(=O)[C@H](Cc2ccnc(N)c2)[C@H]1C(=O)N(C)c1cn(C)cn1)c1cccc(Cl)c1 [Compound 1-25, (2S,3R)-3-((2-aminopyridin-4-yl)methyl)-N2-(1-methyl-1H-imidazol-4-yl)-N1-((R)-1-(3-chlorophenyl)propyl)-N2-methyl-4-oxoazetidine-1,2-dicarboxamide]",Ratio: Trypsin/FXIa,Trypsin,G (“G” indicates 1-100)
same,Ratio: Thrombin/FXIa,Thrombin,G (“G” indicates 1-100)
same,IC50,Factor XIa,< 10 nM
same,Ratio: FXa/FXIa,Factor Xa,H (“H” indicates 101-1000)
"CC[C@@H](NC(=O)N1C(=O)[C@H](Cc2ccnc(N)c2)[C@H]1C(=O)N(C)c1nccn1C)c1cc(C)ccc1F [Compound 1-102, (2S,3R)-3-((2-aminopyridin-4-yl)methyl)-N2-(1-methyl-1H-imidazol-2-yl)-N1-((R)-1-(2-fluoro-5-methylphenyl)propyl)-N2-methyl-4-oxoazetidine-1,2-dicarboxamide]",Ratio: Trypsin/FXIa,Trypsin,G (“G” indicates 1-100)
same,Ratio: Thrombin/FXIa,Thrombin,H (“H” indicates 101-1000)
same,IC50,Factor XIa,< 10 nM
same,Ratio: FXa/FXIa,Factor Xa,I (“I” indicates > 500)
"CC[C@@H](NC(=O)N1C(=O)[C@H](Cc2ccnc(N)c2)[C@H]1C(=O)N(C)c1cncs1)c1ccccc1 [Compound 1-12, (2S,3R)-3-((2-aminopyridin-4-yl)methyl)-N2-(5-thiazolyl)-N1-((R)-1-phenylpropyl)-N2-methyl-4-oxoazetidine-1,2-dicarboxamide]",Ratio: Trypsin/FXIa,Trypsin,G (“G” indicates 1-100)
same,Ratio: Thrombin/FXIa,Thrombin,H (“H” indicates 101-1000)
same,IC50,Factor XIa,< 10 nM
same,Ratio: FXa/FXIa,Factor Xa,H (“H” indicates 101-1000)
"CN(C(=O)[C@@H]1[C@@H](Cc2ccnc(N)c2)C(=O)N1C(=O)N[C@@H](c1ccccc1)C(F)(F)F)c1ccn(C)n1 [Compound 1-31, (2S,3R)-3-((2-aminopyridin-4-yl)methyl)-N2-(1-methyl-1H-pyrazol-3-yl)-N1-((S)-1-phenyl-2,2,2-trifluoroethyl)-N2-methyl-4-oxoazetidine-1,2-dicarboxamide]",Ratio: Trypsin/FXIa,Trypsin,G (“G” indicates 1-100)
same,Ratio: Thrombin/FXIa,Thrombin,G (“G” indicates 1-100)
same,IC50,Factor XIa,10 to 100 nM
same,Ratio: FXa/FXIa,Factor Xa,H (“H” indicates 101-1000)
"CC[C@@H](NC(=O)N1C(=O)[C@H](Cc2ccnc(N)c2)[C@H]1C(=O)N(C)c1ccn(C)n1)c1cccc(F)c1C [Compound 1-128, (2S,3R)-3-((2-aminopyridin-4-yl)methyl)-N2-(1-methyl-1H-pyrazol-3-yl)-N1-((R)-1-(2-methyl-3-fluorophenyl)propyl)-N2-methyl-4-oxoazetidine-1,2-dicarboxamide]",Ratio: Trypsin/FXIa,Trypsin,G (“G” indicates 1-100)
same,Ratio: Thrombin/FXIa,Thrombin,H (“H” indicates 101-1000)
same,IC50,Factor XIa,< 10 nM
same,Ratio: FXa/FXIa,Factor Xa,H (“H” indicates 101-1000)
"CC[C@@H](NC(=O)N1C(=O)[C@H](Cc2cc(C)nc(N)c2)[C@H]1C(=O)N(C)c1ccnn1C)c1cc(F)ccc1F [Compound 1-163, (2S,3R)-3-((2-amino-6-methylpyridin-4-yl)methyl)-N2-(1-methyl-1H-pyrazol-5-yl)-N1-((R)-1-(2,5-difluorophenyl)propyl)-N2-methyl-4-oxoazetidine-1,2-dicarboxamide]",Ratio: Trypsin/FXIa,Trypsin,G (“G” indicates 1-100)
same,Ratio: Thrombin/FXIa,Thrombin,I (“I” indicates > 500)
same,IC50,Factor XIa,< 10 nM
same,Ratio: FXa/FXIa,Factor Xa,I (“I” indicates > 500)
"CC[C@@H](NC(=O)N1C(=O)[C@H](Cc2ccnc(N)c2)[C@H]1C(=O)N(C)c1ccn(C)n1)c1ccc(C)c(C)c1 [Compound 1-127, (2S,3R)-3-((2-aminopyridin-4-yl)methyl)-N2-(1-methyl-1H-pyrazol-3-yl)-N1-((R)-1-(3,4-dimethylphenyl)propyl)-N2-methyl-4-oxoazetidine-1,2-dicarboxamide]",Ratio: Trypsin/FXIa,Trypsin,G (“G” indicates 1-100)
same,Ratio: Thrombin/FXIa,Thrombin,H (“H” indicates 101-1000)
same,IC50,Factor XIa,< 10 nM
same,Ratio: FXa/FXIa,Factor Xa,H (“H” indicates 101-1000)
"CN(C(=O)[C@@H]1[C@@H](Cc2ccnc(N)c2)C(=O)N1C(=O)NC(c1cccc(Cl)c1)C(F)(F)F)c1ccn(C)n1 (stereo in doubt) [Compound 1-38, (2S,3R)-3-((2-aminopyridin-4-yl)methyl)-N2-(1-methyl-1H-pyrazol-3-yl)-N1-((R)-1-(3-chlorophenyl)-2,2,2-trifluoroethyl)-N2-methyl-4-oxoazetidine-1,2-dicarboxamide]",Ratio: Trypsin/FXIa,Trypsin,G (“G” indicates 1-100)
same,Ratio: Thrombin/FXIa,Thrombin,G (“G” indicates 1-100)
same,IC50,Factor XIa,< 10 nM
same,Ratio: FXa/FXIa,Factor Xa,H (“H” indicates 101-1000)
"CC[C@@H](NC(=O)N1C(=O)[C@H](Cc2ccnc(N)c2)[C@H]1C(=O)N(C)c1cnsc1)c1ccccc1 [Compound 1-19, (2S,3R)-3-((2-aminopyridin-4-yl)methyl)-N2-(4-isothiazolyl)-N1-((R)-1-phenylpropyl)-N2-methyl-4-oxoazetidine-1,2-dicarboxamide]",Ratio: Trypsin/FXIa,Trypsin,G (“G” indicates 1-100)
same,Ratio: Thrombin/FXIa,Thrombin,G (“G” indicates 1-100)
same,IC50,Factor XIa,< 10 nM
same,Ratio: FXa/FXIa,Factor Xa,H (“H” indicates 101-1000)
"CC[C@@H](NC(=O)N1C(=O)[C@H](Cc2ccnc(N)c2)[C@H]1C(=O)N(C)c1cnn(C)c1)c1cc(F)c(F)c(F)c1 [Compound 1-199, (2S,3R)-3-((2-aminopyridin-4-yl)methyl)-N2-(1-methyl-1H-pyrazol-4-yl)-N1-((R)-1-(3,4,5-trifluorophenyl)propyl)-N2-methyl-4-oxoazetidine-1,2-dicarboxamide]",Ratio: Trypsin/FXIa,Trypsin,H (“H” indicates 101-1000)
same,Ratio: Thrombin/FXIa,Thrombin,H (“H” indicates 101-1000)
same,IC50,Factor XIa,< 10 nM
same,Ratio: FXa/FXIa,Factor Xa,I (“I” indicates > 500)
"CC[C@@H](NC(=O)N1C(=O)[C@H](Cc2cc(C)nc(N)c2)[C@H]1C(=O)N(C)c1nccn1C)c1ccc(C)c(C)c1 [Compound 1-109, (2S,3R)-3-((2-amino-6-methylpyridin-4-yl)methyl)-N2-(1-methyl-1H-imidazol-2-yl)-N1-((R)-1-(3,4-dimethylphenyl)propyl)-N2-methyl-4-oxoazetidine-1,2-dicarboxamide]",Ratio: Trypsin/FXIa,Trypsin,G (“G” indicates 1-100)
same,Ratio: Thrombin/FXIa,Thrombin,H (“H” indicates 101-1000)
same,IC50,Factor XIa,< 10 nM
same,Ratio: FXa/FXIa,Factor Xa,H (“H” indicates 101-1000)
"CC[C@@H](NC(=O)N1C(=O)[C@H](Cc2ccnc(N)c2)[C@H]1C(=O)N(C)c1cnn(C)c1)C1CCCCC1 [Compound 1-69, (2S,3R)-3-((2-aminopyridin-4-yl)methyl)-N2-(1-methyl-1H-pyrazol-4-yl)-N1-((R)-1-cyclohexylpropyl)-N2-methyl-4-oxoazetidine-1,2-dicarboxamide]",Ratio: Trypsin/FXIa,Trypsin,G (“G” indicates 1-100)
same,Ratio: Thrombin/FXIa,Thrombin,G (“G” indicates 1-100)
same,IC50,Factor XIa,10 to 100 nM
same,Ratio: FXa/FXIa,Factor Xa,H (“H” indicates 101-1000)
